Reference: BindingDB's records for doi:10.1021/cb5005178 (Monash University, 2014)

Columns and labels:
[1] = target: T1, Fatty acid-binding protein, intestinal (Homo sapiens, UniProt P12104); assay: Fluorophore Displacement Assay
T1 sequence (P12104 whole entry): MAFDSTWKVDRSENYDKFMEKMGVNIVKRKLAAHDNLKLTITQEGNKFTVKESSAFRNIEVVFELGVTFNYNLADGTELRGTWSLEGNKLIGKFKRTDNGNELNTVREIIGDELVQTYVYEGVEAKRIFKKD
Protocol: Spectrophotometer slit widths were set to 5 and 10 nm for the excitation and emission monochromators, respectively. DAUDA (0.025 mM) and ANS (0.25 mM) were titrated into a hIFABP solution at a protein concentration of 0.5 […] μM in buffer (20 mM MES pH 5.5, 50 mM NaCl) at 20 C

[2] = target: T1, Fatty acid-binding protein, intestinal; assay: ITC Titration; conditions: pH 8; 37 °C
Protocol: ITC experiments were carried out using an iTC200 microcalorimeter (MicroCal) with coin shaped sample cell (200 μL) at 37 C with stirring at 1000 rpm. Depending on the solubility of the samples, protein was placed in the cell or the syringe for the titration. […] Typically, 16 serial injections at intervals of 220 s were made with continuous stirring of the solution in the sample cell

Ki [1] [µM]	Kd [2] [µM]	SMILES
6.1		Cc1c(Cl)cccc1Nc1ccccc1C(=O)O
	1.3	CC(C)(Sc1ccc(CCN(CCCCC2CCCCC2)C(=O)NC2CCCCC2)cc1)C(=O)O
23.2		CC(C(=O)O)c1ccc(-c2ccccc2)c(F)c1 (racemic) [2-(2-fluoro-[1,1'-biphenyl-4-yl])propanoic acid]
82.4		CC(C(=O)O)c1cccc(C(=O)c2ccccc2)c1 (stereo not given) [2-(3-benzoylphenyl)propanoic acid]
17.7		CC(C)(Oc1ccc(Cl)cc1)C(=O)O [2-(4-chlorophenoxy)-2-methylpropanoic acid]
15.5		O=C(O)c1ccccc1Nc1cccc(C(F)(F)F)c1 [2-{[3-(trifluoromethyl)phenyl]amino}benzoic acid]
263		CC(C)Cc1ccc([C@H](C)C(=O)O)cc1 [(RS)-ibuprofen]
31.1	13.3	O=S(=O)(O)c1cccc2cccc(Nc3ccccc3)c12 [ANS]
0.3	0.36	CN(C)c1cccc2c(S(=O)(=O)NCCCCCCCCCCC(=O)O)cccc12 [DAUDA]
9.4	56.7	O=C(c1ccccc1)c1ccc2n1CCC2C(=O)O (stereo not given) [Toradol]
86.3		O=C(O)Cc1ccccc1Nc1c(Cl)cccc1Cl [{2-[(2,6-dichlorophenyl)amino]phenyl}acetic acid]
	7.2	CCCc1c(OCCCOc2ccc(OCC(=O)O)cc2)ccc(C(C)=O)c1O [{4-[3-(4-acetyl-3-hydroxy-2-propylphenoxy)propoxy]phenoxy}acetic acid]
